Reference: patent US4746675A, “External pharmaceutical composition” (Teijin Limited, priority 1983, dated 1988)
Like-named read-outs stand apart in the source and are kept apart here.

Key:
[1] = diffusion of drug through egg shell membrane in diffusion cell; type: in vitro ADME
Method: A diffusion cell was partitioned by an egg shell membrane. […] While maintaining a temperature of 37° C., the two liquid phases were stirred, and after a lapse of a predetermined period of time, the amount of the drug which diffused into the acceptor side from the donor side was measured.
The diffusion cell used was a glass cell for use in an ordinary diffusion experiment. The egg shell was obtained by removing the contents of an egg from the shell, immersing the shell in 0.7% acetic acid for 30 minutes, subjecting it to ultrasonication for 15 minutes, and carefully peeling the membrane from the shell.
A control test was carried out in the same way as above except that only the drug was added to the donor side.
The amount of the drug which diffused to the acceptor side was measured 30 minutes later, and compared with the control.
The relative amount of the drug diffused from the drug-penetration enhancer system was calculated by taking the amount of the drug diffused from the control donor side as 100. […] Bull., Vol. 20, p.

[2] = concentration of indomethacin in rat blood after application of ointment to the back; conditions: rat, in vivo
Method: An ointment was prepared from 1 part by weight of indomethacin, 10 parts by weight of compound (168) and 89 parts by weight of a hydrophilic ointment (composed of 250 parts of white Vaseline, 220 parts by weight of stearyl alcohol, 120 parts by weight of propylene glycol, 15 parts by weight of sodium laurylsulfate, 0.25 part by weight of ethyl p-hydroxybenzoate, 0.15 part by weight of propyl p-hydroxybenzoate and a small amount of purified water). The back of a rat (body weight about 250 g) was cut by an electric hair-clipper, and 100 mg of the resulting ointment was applied by a finger to a circular unhaired portion, 4 cm in diameter. The blood was drawn from the tail of the rat periodically, and the concentration of indomethacin in the blood was determined periodically by high-performance liquid chromatography.
Various ointments were prepared from 1 part by weight of indomethacin, 10 parts of each of various penetration enhancers shown in Table 2 and the hydrophilic ointment, and tested as in Example 1.

carrageenan edema = carrageenan edema inhibiting effect of betamethasone valerate ointments; type: in vivo, rat; conditions: Table 5, betamethasone valerate ointment with penetration enhancer
Method: An ointment was prepared from 0.15 part by weight of betamethasone valerate, 9.85 parts by weight of compound (168) and 90 parts by weight of the hydrophilic ointment.
In accordance with the method of R. Passarella et al. [Argneim. Forsch 30, (I), Nr. 4, 647-651 (1980)], the carrageenan edema inhibiting effect of the above ointment was examined. Specifically, 0.1 ml of a 1% carrageenan suspension in 0.9% NaCl solution was injected into the tip of the right leg of a rat (body weight 150-175 g). The foot volume was measured immediately after administration of carrageenan and 3, 5, and 6 hours after the administration by means of a mercury displacement device. 0.5, 1 and 2 hours after the administration of carrageenan, 100 mg of the ointment was well […] into each of the sites which underwent inflammation.
Various ointments were prepared from 0.15 part by weight of betamethasone valerate, […] of the various penetration enhancers shown in Table 5, and 85 parts by weight of the hydrophilic ointment, and tested in the same way as in Example 23.

[3] = system: eye (cornea, iris, conjunctiva); experiment: primary eye irritation (Draize) in rabbits; type: in vivo, white native male rabbits; conditions: 2.4% soln, average of three rabbits
Method: enhancers of this invention shown in Table 17 was applied dropwise to one eye of white native male rabbits (body weight 2.0 to 3.0 kg; 3 per group) which, it had been ascertained, were free from any trouble at the cornea, iris and conjunctiva. Nothing was applied to the other eye. Thus, irritation of the absorption aid to the mucous membrane of the eyes were examined, and scores were calculated in accordance with the Draize's eye irritation evaluating method [Association of Foods, "Drugs and Cosmetics" (1957)].
As a control, sodium laurylsulfate, a kind of surface-active agent, was evaluated in the same way, and the results are also shown in Table 17.

[4] = 30 minutes, drug 0.05% with compound (168) 1.0% on donor side, drug alone = 100, 37° C.

CCN(CC)CCOC(=O)c1ccc(N)cc1 [Procaine]
Relative amount of the drug diffused [1, 4]: 149

CN1[C@@H]2C[C@@H](OC(=O)[C@H](CO)c3ccccc3)C[C@H]1[C@@H]1O[C@@H]12 [Scopolamine]
Relative amount of the drug diffused [1, 4]: 116

C[C@]12CC[C@@H]3c4ccc(O)cc4CC[C@H]3[C@@H]1CC[C@@H]2O [Estradiol]
Relative amount of the drug diffused [1]: 181

O=c1[nH]cc(F)c(=O)[nH]1 [5-Fluorouracil]
Relative amount of the drug diffused [1, 4]: 208

CC(=O)OCC1=C(C(=O)O)N2C(=O)[C@@H](NC(=O)Cc3cccs3)[C@H]2SC1 [Cephalothin]
Relative amount of the drug diffused [1, 4]: 139

Cc1ccc(Cl)c(OCC(O)CNC(C)(C)C)c1 (stereo not shown) [Bupranolol]
Relative amount of the drug diffused [1]: 141

CN(C)CCCN1c2ccccc2Sc2ccc(Cl)cc21 [Chlorpromazine]
Relative amount of the drug diffused [1, 4]: 133

COC1=CC(=O)C[C@@H](C)[C@]12Oc1c(Cl)c(OC)cc(OC)c1C2=O [Griseofulvin]
Relative amount of the drug diffused [1]: 209

C=C1/C(=C\C=C2/CCC[C@]3(C)[C@@H]([C@H](C)CCCC(C)(C)O)CC[C@@H]23)C[C@@H](O)C[C@@H]1O [1,25-Dihydroxyvitamin D3]
Relative amount of the drug diffused [1]: 123

COc1ccc2c(c1)c(CC(=O)O)c(C)n2C(=O)c1ccc(Cl)cc1 [Indomethacin]
Relative amount of the drug diffused [1, 4]: 217

O=C(O)c1ccccc1O [Salicylic acid]
Relative amount of the drug diffused [1, 4]: 203

O=C(O)c1cc(=O)c2c(OCC(O)COc3cccc4oc(C(=O)O)cc(=O)c34)cccc2o1 [Sodium cromoglicate]
Relative amount of the drug diffused [1]: 159

iso-Sorbitol nitrate
Relative amount of the drug diffused [1, 4]: 128

O=C1CC[C@@H](C(=O)O)N1 [Pyroglutamic acid, pyroglutamic acid]
Concentration of indomethacin in the blood ([2]; 60 min): 1400 ng/mL
Concentration of indomethacin in the blood ([2]; 180 min): 2200 ng/mL
Concentration of indomethacin in the blood ([2]; 300 min): 2000 ng/mL
Concentration of indomethacin in the blood ([2]; 420 min): 1800 ng/mL
Concentration of indomethacin in the blood ([2]; 1440 min): 700 ng/mL

CN1C(=O)CN=C(c2ccccc2)c2cc(Cl)ccc21 [Diazepam]
Relative amount of the drug diffused [1, 4]: 144

CN1C(C(=O)Nc2ccccn2)=C(O)c2ccccc2S1(=O)=O [Piroxicam]
Relative amount of the drug diffused [1]: 177

Urokinase
Relative amount of the drug diffused [1, 4]: 115

CCCCCCCC(=O)OCC(COC(=O)[C@@H]1CCC(=O)N1)OC(=O)CCCCCCC (stereo partly shown) [Compound (162), 2,3-dioctanoyloxy-1-pyroglutamyloxypropane]
Percentage inhibition vs. control (carrageenan edema; 3 hrs): 16.1%
Percentage inhibition vs. control (carrageenan edema; 5 hrs): 34.0%
Percentage inhibition vs. control (carrageenan edema; 6 hrs): 34.2%
Primary irritation score, Conjunctiva ([3]; 1 hour): 3.3
Primary irritation score, Cornea ([3]; 1 hour): 0
Primary irritation score, Iris ([3]; 1 hour): 0
Primary irritation score, Total ([3]; 1 hour): 3.3
Primary irritation score, Conjunctiva ([3]; 3 hours): 2.0
Primary irritation score, Cornea ([3]; 3 hours): 0
Primary irritation score, Iris ([3]; 3 hours): 0
Primary irritation score, Total ([3]; 3 hours): 2.0
Primary irritation score, Conjunctiva ([3]; 6 hours): 2.0
Primary irritation score, Cornea ([3]; 6 hours): 0
Primary irritation score, Iris ([3]; 6 hours): 0
Primary irritation score, Total ([3]; 6 hours): 2.0
Primary irritation score, Conjunctiva ([3]; 24 hours): 0
Primary irritation score, Cornea ([3]; 24 hours): 0
Primary irritation score, Iris ([3]; 24 hours): 0
Primary irritation score, Total ([3]; 24 hours): 0
Primary irritation score, Conjunctiva ([3]; 48 hours): 0
Primary irritation score, Cornea ([3]; 48 hours): 0
Primary irritation score, Iris ([3]; 48 hours): 0
Primary irritation score, Total ([3]; 48 hours): 0
Primary irritation score, Conjunctiva ([3]; 72 hours): 0
Primary irritation score, Cornea ([3]; 72 hours): 0
Primary irritation score, Iris ([3]; 72 hours): 0
Primary irritation score, Total ([3]; 72 hours): 0
Primary irritation score, Conjunctiva ([3]; 96 hours): 0
Primary irritation score, Cornea ([3]; 96 hours): 0
Primary irritation score, Iris ([3]; 96 hours): 0
Primary irritation score, Total ([3]; 96 hours): 0
Primary irritation score, Conjunctiva ([3]; 168 hours): 0
Primary irritation score, Cornea ([3]; 168 hours): 0
Primary irritation score, Iris ([3]; 168 hours): 0
Primary irritation score, Total ([3]; 168 hours): 0

C[C@](N)(Cc1ccc(O)c(O)c1)C(=O)O [Methyldopa]
Relative amount of the drug diffused [1, 4]: 137

CC1(C)O[C@@H]2C[C@H]3[C@@H]4CCC5=CC(=O)C=C[C@]5(C)[C@@]4(F)[C@@H](O)C[C@]3(C)[C@]2(C(=O)CO)O1 [Triamcinolone acetonide]
Relative amount of the drug diffused [1, 4]: 214

Nc1ccc(C(=O)O)cc1 [p-Aminobenzoic acid]
Relative amount of the drug diffused [1]: 122

CCCCCCCCCCCC(=O)OCC(O)COC(=O)[C@@H]1CCC(=O)N1 (stereo partly shown) [Compound (172), 3-dodecanoyloxy-2-hydroxy-1-pyroglutamyloxypropane]
Percentage inhibition vs. control (carrageenan edema; 3 hrs): 18.1%
Percentage inhibition vs. control (carrageenan edema; 5 hrs): 37.2%
Percentage inhibition vs. control (carrageenan edema; 6 hrs): 35.5%
Primary irritation score, Conjunctiva ([3]; 1 hour): 3.3
Primary irritation score, Cornea ([3]; 1 hour): 0
Primary irritation score, Iris ([3]; 1 hour): 0
Primary irritation score, Total ([3]; 1 hour): 3.3
Primary irritation score, Conjunctiva ([3]; 3 hours): 2.0
Primary irritation score, Cornea ([3]; 3 hours): 0
Primary irritation score, Iris ([3]; 3 hours): 0
Primary irritation score, Total ([3]; 3 hours): 2.0
Primary irritation score, Conjunctiva ([3]; 6 hours): 1.3
Primary irritation score, Cornea ([3]; 6 hours): 0
Primary irritation score, Iris ([3]; 6 hours): 0
Primary irritation score, Total ([3]; 6 hours): 1.3
Primary irritation score, Conjunctiva ([3]; 24 hours): 0
Primary irritation score, Cornea ([3]; 24 hours): 0
Primary irritation score, Iris ([3]; 24 hours): 0
Primary irritation score, Total ([3]; 24 hours): 0
Primary irritation score, Conjunctiva ([3]; 48 hours): 0
Primary irritation score, Cornea ([3]; 48 hours): 0
Primary irritation score, Iris ([3]; 48 hours): 0
Primary irritation score, Total ([3]; 48 hours): 0
Primary irritation score, Conjunctiva ([3]; 72 hours): 0
Primary irritation score, Cornea ([3]; 72 hours): 0
Primary irritation score, Iris ([3]; 72 hours): 0
Primary irritation score, Total ([3]; 72 hours): 0
Primary irritation score, Conjunctiva ([3]; 96 hours): 0
Primary irritation score, Cornea ([3]; 96 hours): 0
Primary irritation score, Iris ([3]; 96 hours): 0
Primary irritation score, Total ([3]; 96 hours): 0
Primary irritation score, Conjunctiva ([3]; 168 hours): 0
Primary irritation score, Cornea ([3]; 168 hours): 0
Primary irritation score, Iris ([3]; 168 hours): 0
Primary irritation score, Total ([3]; 168 hours): 0
